The target in assay [1] is T1, β5 subunit of the human constitutive proteasome (CPS) (Homo sapiens, UniProt P28074).
T1 construct: purchased Boston Biochem E-360
In words: β5 inhibition assay, human constitutive proteasome (Suc-LLVY-AMC). The format is biochemical. As to conditions: IC50 class, Suc-LLVY-AMC substrate. How it is done: The enzymatic activity of the β5 subunit of the human constitutive proteasome (CPS) is analyzed. In another assay, which differs from the assay of the human constitutive proteasome only in using the human immunoproteasome (IPS) the enzymatic activity of the β5 subunit of the human immunoproteasome (IPS) is analyzed. […] Inhibition is indicated as IC50 [nM] (“-”=not measured).

The subject of assay [2] is HT-29 cells. Nature of the assay: CellTiter-Glo luminescent cell viability assay with HT-29 cells (72h incubation). The format is cell-based, human. As to conditions: Homo sapiens, HT-29, HT29 cells, read-out: CTG HT29. In short, it runs like this: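 Viability read as CellTiter-Glo luminescence after 72 h compound exposure, with 10 μM staurosporine and DMSO as control wells. Seeding 400 cells per well, compound added 24 h post-plating; IC50 from curve fitting.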

In assay [3] the test system is hPMBC. Nature of the assay: Chymotrypsin-like ProteasomeGlo assay in hPBMC. The format is cell-based. As to conditions: Homo sapiens; read-out: Pglo hPBMC. In short, it runs like this: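 IC50 derived from luminescent chymotrypsin-like proteasome activity (Suc-LLVY-Glo substrate plus luciferin detection reagent). Measured after 105 min compound exposure at 37 °C, 5% CO2. Cells were human B cells purified from buffy-coat PBMC.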

A value given as a limit tells only on which side of the number the result lay.

Consider `Cc1ccc2cc1CNC(=O)[C@H](CCc1ccccc1)NC(=O)[C@@H](NC(=O)CN1CCOCC1)CC(=O)N1CCCC(CCO2)C1` (stereo partly drawn) [Compound 88, N-((9S,12S)-5^4-methyl-8,11,14-trioxo-9-phenethyl-4-oxa-7,10-diaza-1(3,1)-piperidina-5(1,3)-benzenacyclotetradecaphane-12-yl)-2-morpholinoacetamide], for which the IC50 in assay [1], in assay [2] and in assay [3] was < 100 nM in each case.

With `Cc1ccc2cc1CNC(=O)[C@H](CCc1ccccc1)NC(=O)[C@@H](NC(=O)Cc1ccc(N)cc1)CC(=O)N1CCCC(CCO2)C1` (stereo partly drawn) [Compound 128, 2-(4-aminophenyl)-N-((9S,12S)-5^4-methyl-8,11,14-trioxo-9-phenethyl-4-oxa-7,10-diaza-1(3,1)-piperidina-5(1,3)-benzenacyclotetradecaphane-12-yl)acetamide], the IC50 in assay [1], in assay [2] and in assay [3] was < 100 nM throughout.

On to `COc1ccc(CC(=O)N[C@H]2CC(=O)N3CCCC(CCOc4ccc(C)c(c4)CNC(=O)[C@H](CCc4ccccc4)NC2=O)C3)cc1` (stereo partly drawn) [Compound 83, 2-(4-methoxyphenyl)-N-((9S,12S)-5^4-methyl-8,11,14-trioxo-9-phenethyl-4-oxa-7,10-diaza-1(3,1)-piperidina-5(1,3)-benzenacyclotetradecaphane-12-yl)acetamide], for which the IC50 in assay [1], in assay [2] and in assay [3] was < 100 nM throughout.

For the compound `CC(=O)N[C@H]1CCCC(=O)N2CCC2(C)COc2ccc(C)c(c2)CNC(=O)[C@H](CCc2ccccc2)NC1=O` (stereo partly drawn) [Compound 281, N-((8S,11S)-1^2,4^4-dimethyl-7,10,15-trioxo-8-phenethyl-3-oxa-6,9-diaza-1(2,1)-azetidina-4(1,3)-benzenacyclopentadecaphane-11-yl)acetamide], the IC50 in assay [1] lay in the range of 1000 to 5000 nM; in assay [2] it was 100 to 500 nM; in assay [3], 1000 to 5000 nM.

As for `CC(=O)N[C@H]1CCCC(=O)N2CCCC(CCOc3ccc(C)c(c3)CNC(=O)[C@H](CCc3ccccc3)NC1=O)C2` (stereo partly drawn) [Compound 213, N-((9S,12S)-5^4-methyl-8,11,16-trioxo-9-phenethyl-4-oxa-7,10-diaza-1(3,1)-piperidina-5(1,3)-benzenacyclohexadecaphane-12-yl)acetamide], the IC50 in assay [1], in assay [2] and in assay [3] was < 100 nM each time.

Turning to `Cc1ccc2cc1CNC(=O)[C@H](CCc1ccccc1)NC(=O)[C@@H](N)CC(=O)N1CCCC(CCO2)C1` (stereo partly drawn) [Compound 8, (9S,12S)-12-amino-5^4-methyl-9-phenethyl-4-oxa-7,10-diaza-1(3,1)-piperidina-5(1,3)-benzenacyclotetradecaphane-8,11,14-trione], the IC50 was < 100 nM in assay [1], 100 to 500 nM in assay [2] and 100 to 500 nM in assay [3].

As to `Cc1ccc2cc1CNC(=O)[C@H](CCc1ccccc1)NC(=O)[C@@H](NC(=O)C1CCNCC1(F)F)CC(=O)N1CCCC(CCO2)C1` (stereo partly drawn) [Compound 152, 3,3-difluoro-N-((9S,12S)-5^4-methyl-8,11,14-trioxo-9-phenethyl-4-oxa-7,10-diaza-1(3,1)-piperidina-5(1,3)-benzenacyclotetradecaphane-12-yl)piperidine-4-carboxamide], the IC50 in assay [1], in assay [2] and in assay [3] was < 100 nM throughout.

As to `Cc1ccc2cc1CNC(=O)[C@H](CCc1ccccc1)NC(=O)[C@@H](NC(=O)C1CCCc3ccccc31)CC(=O)N1CCCC(CCO2)C1` (stereo partly drawn) [Compound 82, N-((9S,12S)-5^4-methyl-8,11,14-trioxo-9-phenethyl-4-oxa-7,10-diaza-1(3,1)-piperidina-5(1,3)-benzenacyclotetradecaphane-12-yl)-1,2,3,4-tetrahydronaphthalene-1-carboxamide], the IC50 in assay [1], in assay [2] and in assay [3] was < 100 nM in each case.

(Values after patent US20240415819A1, “MACROCYCLIC COMPOUNDS AS PROTEASOME SUBUNIT BETA TYPE-5 INHIBITORS” (Lead Discovery Center GmbH, priority 2021, published 2024).)
